Experimental findings from patent US20240316022A1 (TYRA BIOSCIENCES, INC., priority 2021, published 2024) are described below.

A word on the Kd: it is the constant that tells how readily two partners part at equilibrium. For orientation: IC50 means the concentration needed to halve the response being measured.

The target in one test is T1, FGFR1 (Homo sapiens, UniProt P11362).
T1 construct: made in house; host or cells: E. coli derived from BL21, infected with T7 phage
The test can be described thus: Kinase binding assay (kinase-tagged T7 phage, qPCR), Kd. As to conditions: read-out: FGFR1 (Kd nM).

The next test has as its target T2, FGFR2 (Homo sapiens, UniProt P21802).
T2 construct: made in house; host or cells: E. coli derived from BL21, infected with T7 phage
The test is described as above. As to conditions: read-out: FGFR2 (Kd nM).

A further test deals with T3, FGFR3 (Homo sapiens, UniProt P22607).
T3 construct: made in house; host or cells: E. coli derived from BL21, infected with T7 phage
The description is as above. The settings on record: read-out: FGFR3 (Kd nM).

The next test has as its target T4, FGFR4 (Homo sapiens, UniProt P22455).
T4 construct: made in house; host or cells: E. coli derived from BL21, infected with T7 phage
The description is as above. As to conditions: read-out: FGFR4 (Kd nM).

The target of another test is T5, BCR-FGFR1 Ba/F3 (Homo sapiens, UniProt P11362).
T5 construct: host or cells: Ba/F3; the other entry of the earlier key: BCR (P11274, Breakpoint cluster region protein)
Kind of test: Ba/F3 cell viability assay (CellTiter-Glo 2.0). The format is cell-based. The settings on record: Ba/F3 BCR-FGFR1 cells, 48 hours.

The target in a further test is T6, BCR-FGFR4 Ba/F3 (Homo sapiens, UniProt P22455).
T6 construct: host or cells: Ba/F3; the other entry of the earlier key: BCR (P11274, Breakpoint cluster region protein)
The test can be described thus: Ba/F3 cell viability assay (CellTiter-Glo 2.0). In kind it is cell-based. The settings on record: Ba/F3 BCR-FGFR4 cells, 48 hours. On the technique in general: ATP-based viability assays read luminescence as a measure of living cells.

In another test the target is T7, FGFR3-BAIAP2L1 Ba/F3 (Homo sapiens, UniProt P22607).
T7 construct: host or cells: Ba/F3; the other entry of the earlier key: BAIAP2L1 (Q9UHR4, BAR/IMD domain-containing adapter protein 2-like 1)
Kind of test: Ba/F3 cell viability assay (CellTiter-Glo 2.0). As to conditions: Ba/F3 FGFR3-BAIAP2L1 cells, 48 hours. In kind it is cell-based.

T7 sequence (P22607 397-758 limits assumed): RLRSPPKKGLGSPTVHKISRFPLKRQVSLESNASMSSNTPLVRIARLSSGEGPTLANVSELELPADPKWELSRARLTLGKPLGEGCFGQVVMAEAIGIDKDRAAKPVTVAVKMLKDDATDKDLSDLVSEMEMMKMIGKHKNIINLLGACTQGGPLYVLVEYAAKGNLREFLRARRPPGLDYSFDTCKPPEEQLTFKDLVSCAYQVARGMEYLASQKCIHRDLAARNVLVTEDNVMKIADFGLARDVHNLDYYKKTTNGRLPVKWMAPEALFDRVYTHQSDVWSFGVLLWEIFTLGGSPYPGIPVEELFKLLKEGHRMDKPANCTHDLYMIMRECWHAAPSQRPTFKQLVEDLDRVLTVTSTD
T4 sequence (P22455 22-802): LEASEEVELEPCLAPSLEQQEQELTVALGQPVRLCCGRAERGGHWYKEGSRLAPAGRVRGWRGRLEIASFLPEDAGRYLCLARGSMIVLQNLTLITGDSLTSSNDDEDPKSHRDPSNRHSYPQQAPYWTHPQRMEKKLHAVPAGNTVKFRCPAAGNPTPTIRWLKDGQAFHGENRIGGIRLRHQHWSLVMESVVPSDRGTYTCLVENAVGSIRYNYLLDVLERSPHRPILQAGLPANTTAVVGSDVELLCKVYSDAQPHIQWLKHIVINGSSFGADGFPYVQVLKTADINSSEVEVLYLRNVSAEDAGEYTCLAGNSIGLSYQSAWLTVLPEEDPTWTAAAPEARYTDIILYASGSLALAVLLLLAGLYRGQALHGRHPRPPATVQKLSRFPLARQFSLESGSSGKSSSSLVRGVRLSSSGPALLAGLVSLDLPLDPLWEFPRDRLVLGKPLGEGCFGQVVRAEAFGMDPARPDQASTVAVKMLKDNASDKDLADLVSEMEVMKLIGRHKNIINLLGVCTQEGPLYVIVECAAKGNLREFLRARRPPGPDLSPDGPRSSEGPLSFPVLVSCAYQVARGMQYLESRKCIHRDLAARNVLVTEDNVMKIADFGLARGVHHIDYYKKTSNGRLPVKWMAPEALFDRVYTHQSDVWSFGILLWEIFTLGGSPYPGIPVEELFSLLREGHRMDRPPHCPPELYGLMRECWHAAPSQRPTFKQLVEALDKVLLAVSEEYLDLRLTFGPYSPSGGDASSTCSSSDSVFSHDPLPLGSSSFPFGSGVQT
T3 sequence (P22607 23-806): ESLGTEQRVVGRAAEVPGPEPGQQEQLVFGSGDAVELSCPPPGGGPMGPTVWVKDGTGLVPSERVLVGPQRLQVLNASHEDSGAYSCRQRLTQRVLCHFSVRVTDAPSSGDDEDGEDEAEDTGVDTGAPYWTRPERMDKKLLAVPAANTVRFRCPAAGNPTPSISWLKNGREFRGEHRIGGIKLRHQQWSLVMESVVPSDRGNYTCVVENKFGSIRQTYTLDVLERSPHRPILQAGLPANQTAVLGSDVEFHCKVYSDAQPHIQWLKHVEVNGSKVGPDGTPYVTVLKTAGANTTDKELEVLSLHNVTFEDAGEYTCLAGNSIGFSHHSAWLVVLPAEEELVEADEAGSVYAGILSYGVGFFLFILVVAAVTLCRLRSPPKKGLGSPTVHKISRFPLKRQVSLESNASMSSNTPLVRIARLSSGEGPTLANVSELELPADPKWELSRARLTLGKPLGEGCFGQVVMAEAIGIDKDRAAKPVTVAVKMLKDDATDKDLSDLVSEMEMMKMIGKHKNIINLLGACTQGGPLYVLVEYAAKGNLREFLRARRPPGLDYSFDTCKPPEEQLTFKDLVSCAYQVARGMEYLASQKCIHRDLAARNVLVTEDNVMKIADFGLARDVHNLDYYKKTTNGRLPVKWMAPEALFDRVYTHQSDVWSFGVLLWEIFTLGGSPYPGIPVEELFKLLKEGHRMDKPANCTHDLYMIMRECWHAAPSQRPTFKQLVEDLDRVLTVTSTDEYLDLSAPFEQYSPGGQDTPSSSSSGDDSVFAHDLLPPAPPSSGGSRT
T6 sequence (P22455 467-755 limits assumed): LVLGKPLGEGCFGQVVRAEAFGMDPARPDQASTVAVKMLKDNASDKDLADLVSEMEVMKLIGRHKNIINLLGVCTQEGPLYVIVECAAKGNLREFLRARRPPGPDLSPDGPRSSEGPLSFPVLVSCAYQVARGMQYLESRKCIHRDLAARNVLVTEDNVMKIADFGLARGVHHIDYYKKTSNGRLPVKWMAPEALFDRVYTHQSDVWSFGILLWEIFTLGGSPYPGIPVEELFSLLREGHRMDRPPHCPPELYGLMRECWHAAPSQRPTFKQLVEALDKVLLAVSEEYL
T1 sequence (P11362 22-822): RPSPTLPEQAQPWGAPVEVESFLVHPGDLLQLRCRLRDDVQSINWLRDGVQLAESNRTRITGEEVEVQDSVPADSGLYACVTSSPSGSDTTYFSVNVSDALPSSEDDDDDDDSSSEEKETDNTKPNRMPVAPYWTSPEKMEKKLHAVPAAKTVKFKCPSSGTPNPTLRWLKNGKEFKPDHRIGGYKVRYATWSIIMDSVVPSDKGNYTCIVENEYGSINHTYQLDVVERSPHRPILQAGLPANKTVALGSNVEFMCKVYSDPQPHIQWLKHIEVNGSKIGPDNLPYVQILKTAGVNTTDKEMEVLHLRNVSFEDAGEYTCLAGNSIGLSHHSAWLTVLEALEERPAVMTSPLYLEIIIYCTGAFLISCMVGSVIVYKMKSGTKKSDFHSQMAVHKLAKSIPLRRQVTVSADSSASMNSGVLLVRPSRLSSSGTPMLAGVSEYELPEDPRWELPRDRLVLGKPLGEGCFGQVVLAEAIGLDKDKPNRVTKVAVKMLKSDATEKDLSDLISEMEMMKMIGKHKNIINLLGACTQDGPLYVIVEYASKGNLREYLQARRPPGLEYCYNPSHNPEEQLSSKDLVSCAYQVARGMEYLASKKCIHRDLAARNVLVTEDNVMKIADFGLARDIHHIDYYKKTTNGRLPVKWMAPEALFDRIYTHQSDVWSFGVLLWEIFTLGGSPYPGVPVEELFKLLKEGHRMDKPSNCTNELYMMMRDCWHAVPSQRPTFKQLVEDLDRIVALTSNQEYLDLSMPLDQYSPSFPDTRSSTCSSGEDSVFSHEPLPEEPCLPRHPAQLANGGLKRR
T5 sequence (P11362 478-767 limits assumed): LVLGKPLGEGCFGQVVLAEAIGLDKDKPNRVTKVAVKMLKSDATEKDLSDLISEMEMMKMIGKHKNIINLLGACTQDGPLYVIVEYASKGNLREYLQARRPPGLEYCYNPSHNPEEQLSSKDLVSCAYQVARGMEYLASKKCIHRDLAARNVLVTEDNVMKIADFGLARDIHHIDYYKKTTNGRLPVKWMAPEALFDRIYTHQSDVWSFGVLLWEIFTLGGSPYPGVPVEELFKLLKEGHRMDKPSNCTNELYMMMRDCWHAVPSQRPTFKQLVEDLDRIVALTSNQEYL
T2 sequence (P21802 22-821): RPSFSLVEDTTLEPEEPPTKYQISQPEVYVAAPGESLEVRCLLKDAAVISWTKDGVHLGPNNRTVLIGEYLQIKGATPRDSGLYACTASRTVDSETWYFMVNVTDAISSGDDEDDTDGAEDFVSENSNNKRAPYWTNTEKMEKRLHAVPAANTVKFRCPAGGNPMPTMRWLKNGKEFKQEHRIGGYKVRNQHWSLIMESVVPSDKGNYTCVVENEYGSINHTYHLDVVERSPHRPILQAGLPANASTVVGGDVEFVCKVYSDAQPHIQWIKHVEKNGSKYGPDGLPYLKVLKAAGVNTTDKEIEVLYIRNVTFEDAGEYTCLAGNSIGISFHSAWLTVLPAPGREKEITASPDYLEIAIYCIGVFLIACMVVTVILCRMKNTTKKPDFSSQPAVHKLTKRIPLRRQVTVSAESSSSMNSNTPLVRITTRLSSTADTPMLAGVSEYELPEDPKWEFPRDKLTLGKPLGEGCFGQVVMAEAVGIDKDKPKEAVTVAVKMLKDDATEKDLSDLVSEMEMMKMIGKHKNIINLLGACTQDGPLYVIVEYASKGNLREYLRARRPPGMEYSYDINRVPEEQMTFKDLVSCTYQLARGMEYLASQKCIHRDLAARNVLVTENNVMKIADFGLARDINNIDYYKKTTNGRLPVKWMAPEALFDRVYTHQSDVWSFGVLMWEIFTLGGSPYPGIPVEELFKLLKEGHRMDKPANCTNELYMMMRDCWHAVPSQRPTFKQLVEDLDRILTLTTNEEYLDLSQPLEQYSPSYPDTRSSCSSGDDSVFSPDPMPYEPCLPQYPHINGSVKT

Turning to `C=CC(=O)N1CCOc2ncc(-c3n[nH]c4ccc(O[C@H](C)c5c(Cl)cncc5Cl)cc34)cc21` [Example 25, 1-[7-[5-[(1R)-1-(3,5-dichloro-4-pyridyl)ethoxy]-1H-indazol-3-yl]-2,3-dihydro-pyrido[2,3-b][1,4]oxazin-1-yl]prop-2-en-1-one], the Kd at FGFR1 is greater than 1000 nM; on FGFR2, greater than 1000 nM; at FGFR3 it was greater than 1000 nM; at FGFR4, 0.1 to 100 nM. In addition, the IC50 was greater than 1000 nM at BCR-FGFR1 Ba/F3, 0.1 to 100 nM at BCR-FGFR4 Ba/F3 and 250 to 1000 nM on FGFR3-BAIAP2L1 Ba/F3.

With `C[C@@H](Oc1ccc2[nH]nc(-c3cnc4c(c3)N(C(=O)CCN(C)C)CCO4)c2c1)c1c(Cl)cncc1Cl` [Example 26, 1-[7-[5-[(1R)-1-(3,5-dichloro-4-pyridyl)ethoxy]-1H-indazol-3-yl]-2,3-dihydropyrido[2,3-b][1,4]oxazin-1-yl]-3-(dimethyl-amino)propan-1-one], the Kd at FGFR1 is greater than 1000 nM; at FGFR2, greater than 1000 nM; at FGFR3, 250 to 1000 nM; on FGFR4, 0.1 to 100 nM. Moreover, the IC50 at BCR-FGFR4 Ba/F3 fell in the range of 0.1 to 100 nM.

As for `C[C@@H](Oc1ccc2[nH]nc(-c3cnc(N)c(OC(F)F)c3)c2c1)c1c(Cl)cncc1Cl` [Example 28, 5-[5-[(1R)-1-(3,5-dichloro-4-pyridyl)ethoxy]-1H-indazol-3-yl]-3-(difluoromethoxy)pyridin-2-amine], the Kd is 250 to 1000 nM at FGFR1, greater than 1000 nM at FGFR2, 250 to 1000 nM on FGFR3 and 0.1 to 100 nM on FGFR4. Further, the IC50 at BCR-FGFR1 Ba/F3 is greater than 1000 nM; on BCR-FGFR4 Ba/F3 it was 250 to 1000 nM; at FGFR3-BAIAP2L1 Ba/F3 it was 250 to 1000 nM.

`C[C@@H](Oc1ccc2[nH]nc(-c3cnc(N)c(C#N)c3)c2c1)c1c(Cl)cncc1Cl` [Example 30, 2-amino-5-[5-[(1R)-1-(3,5-dichloro-4-pyridyl)ethoxy]-1H-indazol-3-yl]pyridine-3-carbonitrile]: the Kd was 0.1 to 100 nM on FGFR1, greater than 1000 nM at FGFR2, 0.1 to 100 nM at FGFR3 and 0.1 to 100 nM on FGFR4. At BCR-FGFR4 Ba/F3, the IC50 lay in the range of 250 to 1000 nM.

`COc1cc(-c2n[nH]c3ccc(O[C@H](C)c4c(Cl)cncc4Cl)cc23)cnc1N` [Example 34, 5-[5-[(1R)-1-(3,5-dichloro-4-pyridyl)ethoxy]-1H-indazol-3-yl]-3-methoxy-pyridin-2-amine]: the Kd was 250 to 1000 nM on FGFR1, 250 to 1000 nM at FGFR2, 0.1 to 100 nM on FGFR3 and 0.1 to 100 nM on FGFR4. Further, on BCR-FGFR4 Ba/F3, the IC50 fell in the range of 250 to 1000 nM.

As to `Cc1nccc(C(=O)N2CCOc3ncc(-c4n[nH]c5ccc(O[C@H](C)c6c(Cl)cncc6Cl)cc45)cc32)n1` [Example 40, [7-[5-[(1R)-1-(3,5-dichloro-4-pyridyl)ethoxy]-1H-indazol-3-yl]-2,3-dihydro-pyrido[2,3-b][1,4]oxazin-1-yl]-(2-methyl-pyrimidin-4-yl)methanone], the Kd was 250 to 1000 nM at FGFR1, 250 to 1000 nM at FGFR2, 0.1 to 100 nM on FGFR3 and 0.1 to 100 nM at FGFR4. Also, the IC50 at BCR-FGFR4 Ba/F3 fell in the range of 250 to 1000 nM.

For `Cc1ccc(C(=O)N2CCOc3ncc(-c4n[nH]c5ccc(O[C@H](C)c6c(Cl)cncc6Cl)cc45)cc32)cn1` [Example 41], the dissociation constant Kd lay in the range of 0.1 to 100 nM on FGFR1, 100 to 250 nM on FGFR2, 0.1 to 100 nM on FGFR3 and 0.1 to 100 nM on FGFR4. Also, the IC50 on BCR-FGFR4 Ba/F3 lay within 250 to 1000 nM.

For `Cc1ncccc1C(=O)N1CCOc2ncc(-c3n[nH]c4ccc(O[C@H](C)c5c(Cl)cncc5Cl)cc34)cc21` [Example 42, [7-[5-[(1R)-1-(3,5-dichloro-4-pyridyl)ethoxy]-1H-indazol-3-yl]-2,3-dihydro-pyrido[2,3-b][1,4]oxazin-1-yl]-(2-methyl-3-pyridyl)methanone], the Kd on FGFR1 is greater than 1000 nM; at FGFR2, greater than 1000 nM; on FGFR3, 100 to 250 nM; at FGFR4 it was 0.1 to 100 nM. Moreover, the IC50 at BCR-FGFR4 Ba/F3 was greater than 1000 nM.

Regarding `COc1cc(NC(=O)c2ccccn2)cc(-c2n[nH]c3ccc(O[C@H](C)c4c(Cl)cncc4Cl)cc23)c1` [Example 45, N-[3-[5-[(1R)-1-(3,5-dichloro-4-pyridyl)ethoxy]-1H-indazol-3-yl]-5-methoxy-phenyl]pyridine-2-carboxamide], the Kd at FGFR1 was 250 to 1000 nM; on FGFR2, greater than 1000 nM; on FGFR3 it was 0.1 to 100 nM; at FGFR4, 0.1 to 100 nM. For the same compound, the IC50 on BCR-FGFR4 Ba/F3 is 250 to 1000 nM.

Turning to `C[C@@H](Oc1ccc2[nH]nc(-c3cnc4c(c3)N(CCO)CCO4)c2c1)c1c(Cl)cncc1Cl` [Example 49, 2-[7-[5-[(1R)-1-(3,5-dichloro-4-pyridyl)ethoxy]-1H-indazol-3-yl]-2,3-dihydro-pyrido[2,3-b][1,4]oxazin-1-yl]ethanol], the Kd on FGFR1 is greater than 1000 nM; at FGFR2, greater than 1000 nM; at FGFR3, 250 to 1000 nM; at FGFR4, 100 to 250 nM. The IC50 at BCR-FGFR4 Ba/F3 was 250 to 1000 nM.

`COc1cc(C#N)cc(-c2n[nH]c3ccc(O[C@H](C)c4c(C)cnnc4C)cc23)c1` [Example 53, 3-[5-[(1R)-1-(3,5-dimethylpyridazin-4-yl)ethoxy]-1H-indazol-3-yl]-5-methoxy-benzonitrile]: the Kd at FGFR1 lay in the range of 250 to 1000 nM; on FGFR2, 0.1 to 100 nM; at FGFR3, 0.1 to 100 nM; at FGFR4 it was 0.1 to 100 nM. The IC50 at BCR-FGFR4 Ba/F3 fell in the range of 250 to 1000 nM.

For `Cc1cnnc(C)c1[C@@H](C)Oc1ccc2[nH]nc(-c3cc(C#N)cc(OCCO)c3)c2c1` [Example 72, 3-[5-[(1R)-1-(3,5-dimethylpyridazin-4-yl)ethoxy]-1H-indazol-3-yl]-5-(2-hydroxyethoxy)benzonitrile], the dissociation constant (Kd) on FGFR1, at FGFR2, on FGFR3 and on FGFR4 was 0.1 to 100 nM in each case. Further, the 50% inhibitory concentration (IC50) at BCR-FGFR1 Ba/F3 was in the range of 250 to 1000 nM; on BCR-FGFR4 Ba/F3 it was 100 to 250 nM; at FGFR3-BAIAP2L1 Ba/F3, 0.1 to 100 nM.

For the compound `Cc1cc(C#N)cc(-c2n[nH]c3ccc(O[C@H](C)c4c(C)cnnc4C)cc23)c1` [Example 79, 3-[5-[(1R)-1-(3,5-dimethylpyridazin-4-yl)ethoxy]-1H-indazol-3-yl]-5-methyl-benzonitrile], the Kd at FGFR1, on FGFR2, at FGFR3 and on FGFR4 was 0.1 to 100 nM in each case. Besides, the IC50 on BCR-FGFR1 Ba/F3 fell in the range of 250 to 1000 nM; on BCR-FGFR4 Ba/F3 it was 250 to 1000 nM; at FGFR3-BAIAP2L1 Ba/F3, 0.1 to 100 nM.
